Drawing on PubChem BioAssay AID298 (DTP/NCI, 2004), this text covers T/C for 20 molecules.

This test relates to MX-1 breast xenograft, intrarenal, nude mice, tumor weight. Description: NCI In Vivo Anticancer Drug Screen. Data for tumor model Human Mammary Carcinoma MX-1 Xenograft (intrarenal inoculation) in NU/NU BALB/C (nude) mice. As to conditions: endpoint: mean tumor weight change, higher = larger tumour. The essentials: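 Compounds were given to mice carrying transplanted tumors, and tumor size or survival was measured. Each value is the treated-group measurement (T) divided by the vehicle-treated control-group measurement (C).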

The mark [1] stands for this setting: dose: 100.0 mg/kg/injection, schedule: Q04DX003 (ip), vehicle: Klucel (hydroxypropylcellulose) (HPC).
The mark [2] stands for this setting: dose: 150.0 mg/kg/injection, schedule: Q04DX003 (ip), vehicle: Klucel (hydroxypropylcellulose) (HPC).
Setting [3] is: dose: 75.0 mg/kg/injection, schedule: Q04DX003 (ip), vehicle: saline with Tween-80.
Setting [4] is: dose: 150.0 mg/kg/injection, schedule: Q04DX003 (ip), vehicle: saline with Tween-80.
[5] abbreviates: dose: 300.0 mg/kg/injection, schedule: Q04DX003 (ip), vehicle: saline with Tween-80.

SMILES strings stand for the structures. “And” between values parts separate entries of the source, which are not always exact repeats. Identical values can stand only once. Results filed as inconclusive are left out.

In the case of `CCC1(O)C(=O)OCc2c1cc1n(c2=O)Cc2cc3cc(N)ccc3nc2-1` (stereo not given), the T/C is, setting by setting: (dose: 1.88 mg/kg/injection, schedule: Q04DX003 (ip), vehicle: suspension in saline) 5 % of control; (dose: 3.75 mg/kg/injection, schedule: Q04DX003 (ip), vehicle: suspension in saline) 1 % of control; (dose: 7.5 mg/kg/injection, schedule: Q04DX003 (ip), vehicle: suspension in saline) -100 % of control; (dose: 15.0 mg/kg/injection, schedule: Q04DX003 (ip), vehicle: suspension in saline) -100 % of control.

On to `CCOc1cc2c(cc1C(C)c1ccc(OC)cc1)OCO2` (stereo not given), for which the T/C is 36 % of control (dose: 300.0 mg/kg/injection, schedule: Q04DX003 (sc), vehicle: distilled water + alcohol); 90 % of control (dose: 600.0 mg/kg/injection, schedule: Q04DX003 (sc), vehicle: distilled water + alcohol); 76 % of control (dose: 1200.0 mg/kg/injection, schedule: Q04DX003 (sc), vehicle: distilled water + alcohol); 111 % of control (dose: 2400.0 mg/kg/injection, schedule: Q04DX003 (sc), vehicle: distilled water + alcohol).

Consider `COc1ccc2c(c1)n([O-])c1ccccc1[n+]2=O`, for which the T/C by setting is: (dose: 50.0 mg/kg/injection, schedule: Q04DX003 (ip), vehicle: saline with Tween-80) 40 % of control; (dose: 100.0 mg/kg/injection, schedule: Q04DX003 (ip), vehicle: saline with Tween-80) 48 % of control; (dose: 200.0 mg/kg/injection, schedule: Q04DX003 (ip), vehicle: saline with Tween-80) 36 % of control.

As to `CS(=O)(=O)OCCN(CCOS(C)(=O)=O)c1ccc(C=Nc2ccc(-c3csc(COc4ccccc4)n3)cc2)cc1`, the T/C (dose: 50.0 mg/kg/injection, schedule: Q01DX010 (sc), vehicle: Klucel (hydroxypropylcellulose) (HPC)) is 13 % of control; the T/C (dose: 100.0 mg/kg/injection, schedule: Q01DX010 (sc), vehicle: Klucel (hydroxypropylcellulose) (HPC)) is -6 % of control; the T/C under setting [1] was 24 % of control; the T/C (dose: 100.0 mg/kg/injection, schedule: Q04DX003 (sc), vehicle: Klucel (hydroxypropylcellulose) (HPC)) was 32 % of control; the T/C (dose: 200.0 mg/kg/injection, schedule: Q01DX010 (sc), vehicle: Klucel (hydroxypropylcellulose) (HPC)) was -61 % of control; the T/C (dose: 200.0 mg/kg/injection, schedule: Q04DX003 (ip), vehicle: Klucel (hydroxypropylcellulose) (HPC)) was 3 % of control. For the same molecule, the T/C (dose: 200.0 mg/kg/injection, schedule: Q04DX003 (sc), vehicle: Klucel (hydroxypropylcellulose) (HPC)) was 18 % of control.

As for `CCCn1c(SC)nc(COC(=O)NC)c1COC(=O)NC`, the T/C runs as follows: (dose: 30.0 mg/kg/injection, schedule: Q04DX003 (ip), vehicle: saline) 62 % of control; (dose: 60.0 mg/kg/injection, schedule: Q04DX003 (ip), vehicle: saline) 38 % of control; (dose: 120.0 mg/kg/injection, schedule: Q04DX003 (ip), vehicle: saline) 7 % of control; (dose: 240.0 mg/kg/injection, schedule: Q04DX003 (ip), vehicle: saline) -100 % of control.

As for `CC1=C(C(N)=O)C(c2ccccc2)NC(=S)N1` (stereo not given), the T/C under setting [2] is 87 % of control.

Consider `COC(=O)NC1C(C)OC(OC2C/C=C(/C)C3C=CC4C(OC5CC(OC6CC(O)C(OC7CC(O)C(OC)C(C)O7)C(C)O6)C(O)C(C)O5)C(C)CC(C)C4C3(C)/C(O)=C3\C(=O)OC4(CC(C)C(CO)=CC4/C=C\2C)C3=O)CC1(C)[N+](=O)[O-]` (stereo not given), for which the T/C (dose: 75.0 mg/kg/injection, schedule: Q04DX003 (ip), vehicle: Klucel (hydroxypropylcellulose) (HPC)) is 110 % of control and the T/C under setting [2] was 108 % of control.

For the molecule `Nc1cc2c(cc1Br)-c1c(C(=O)O)cccc1C2O` (stereo not given), the T/C by setting is: (dose: 150.0 mg/kg/injection, schedule: Q04DX003 (ip), vehicle: sodium bicarbonate) 97 % of control; (dose: 300.0 mg/kg/injection, schedule: Q04DX003 (ip), vehicle: sodium bicarbonate) 94 % of control; (dose: 600.0 mg/kg/injection, schedule: Q04DX003 (ip), vehicle: sodium bicarbonate) 101 % of control; (dose: 1200.0 mg/kg/injection, schedule: Q04DX003 (ip), vehicle: sodium bicarbonate) 92 % of control.

Take `COC(=O)C1C2CCCN2OC1(C)CO` (stereo not given): the T/C was 224 % of control (dose: 30.0 mg/kg/injection, schedule: Q01DX001 (ip), vehicle: saline); 118 % of control (dose: 240.0 mg/kg/injection, schedule: Q01DX001 (ip), vehicle: saline); 80 % of control (dose: 480.0 mg/kg/injection, schedule: Q01DX001 (ip), vehicle: saline).

In the case of `COc1cccc(Sc2ccc([N+](=O)[O-])c3no[n+]([O-])c23)c1`, the T/C (dose: 7.5 mg/kg/injection, schedule: Q04DX003 (ip), vehicle: saline with Tween-80) is 69 % of control and 86 % of control; the T/C (dose: 30.0 mg/kg/injection, schedule: Q04DX003 (ip), vehicle: saline with Tween-80) was 124 % of control; the T/C (dose: 480.0 mg/kg/injection, schedule: Q04DX003 (ip), vehicle: saline with Tween-80) was 36 % of control and 41 % of control and 50 % of control.

For the molecule `N#CC(C#N)=NNc1ccc2cn[nH]c2c1`, the T/C is 94 % of control (dose: 12.5 mg/kg/injection, schedule: Q04DX003 (ip), vehicle: Klucel (hydroxypropylcellulose) (HPC)); 174 % of control (dose: 50.0 mg/kg/injection, schedule: Q04DX003 (ip), vehicle: Klucel (hydroxypropylcellulose) (HPC)); 106 % of control under setting [1].

On to `COc1cc(O)c2c(O)c3c(c4c2c1[C@]1(C4)C(C)=CCCC1(C)C)[C@H](O)[C@@]1(O)CC(=O)C(C(N)=O)=C(O)[C@@]1(O)C3=O`, for which, under setting [3], the T/C is 106 % of control.

In the case of `[Cl][Hg][Cl]`, the T/C (dose: 5.0 mg/kg/injection, schedule: Q04DX003 (ip), vehicle: saline) is 67 % of control.

Take `CCC(/C=C/C1OC(=O)C=CC1C)=C\C(C)C/C=C/C(C)=C/C(C)C(=O)C(C)C(O)C(C)C/C(C)=C/C(=O)O` (stereo not given): the T/C by setting is: (dose: 1.0 mg/kg/injection, schedule: Q04DX003 (ip), vehicle: saline + alcohol) 114 % of control; (dose: 2.0 mg/kg/injection, schedule: Q04DX003 (ip), vehicle: saline + alcohol) 109 % of control; (dose: 4.0 mg/kg/injection, schedule: Q04DX003 (ip), vehicle: saline + alcohol) 71 % of control; (dose: 75.0 micrograms/kg/injection, schedule: Q04DX003 (ip), vehicle: saline + alcohol) 119 % of control; (dose: 150.0 micrograms/kg/injection, schedule: Q04DX003 (ip), vehicle: saline + alcohol) 114 % of control; (dose: 300.0 micrograms/kg/injection, schedule: Q04DX003 (ip), vehicle: saline + alcohol) 107 % of control. Further, where the note is “dose: 600.0 micrograms/kg/injection, schedule: Q04DX003 (ip), vehicle: saline + alcohol”, the T/C is 102 % of control.

For the molecule `COc1cc2oc3c(C)c(=O)cc4oc(-c5ccccc5)cc(c2c2c1CCC(c1ccccc1)O2)c43` (stereo not given), the T/C is, setting by setting: (dose: 7.0 mg/kg/injection, schedule: Q04DX003 (ip), vehicle: Klucel (hydroxypropylcellulose) (HPC)) 88 % of control; (dose: 14.0 mg/kg/injection, schedule: Q04DX003 (ip), vehicle: Klucel (hydroxypropylcellulose) (HPC)) 82 % of control; (dose: 37.5 mg/kg/injection, schedule: Q04DX003 (ip), vehicle: saline with Tween-80) 111 % of control; (dose: 56.0 mg/kg/injection, schedule: Q04DX003 (ip), vehicle: Klucel (hydroxypropylcellulose) (HPC)) 107 % of control; under setting [3], 77 % of control; under setting [4], 117 % of control. Besides, under setting [5], the T/C was 52 % of control.

Consider `CCC1(O)C(=O)OCc2c1cc1n(c2=O)Cc2cc3cc4c(cc3nc2-1)OCO4` (stereo not given), for which the T/C (dose: 4.0 mg/kg/injection, schedule: Q04DX003 (ip), vehicle: saline with Tween-80) is -100 % of control.

Regarding `O=C1CCC(=O)N1CO`, the T/C by setting is: (dose: 300.0 mg/kg/injection, schedule: Q04DX003 (sc), vehicle: saline) 73 % of control; (dose: 600.0 mg/kg/injection, schedule: Q04DX003 (sc), vehicle: saline) 86 % of control.

In the case of `NC(=S)N/N=C/c1cc(=O)c2cc(Cl)ccc2o1`, the T/C runs as follows: (dose: 150.0 mg/kg/injection, schedule: Q04DX003 (ip), vehicle: other) 117 % of control; (dose: 300.0 mg/kg/injection, schedule: Q04DX003 (ip), vehicle: other) 103 % of control; (dose: 600.0 mg/kg/injection, schedule: Q04DX003 (ip), vehicle: other) 117 % of control; (dose: 1200.0 mg/kg/injection, schedule: Q04DX003 (ip), vehicle: other) 106 % of control.

`O=C(Nc1cc(Cl)ccc1C(=O)O)c1cccc(C[n+]2ccccc2)c1`: the T/C is, setting by setting: under setting [4], 109 % of control; under setting [5], 109 % of control; (dose: 600.0 mg/kg/injection, schedule: Q04DX003 (ip), vehicle: saline with Tween-80) 82 % of control.

In the case of `CNC(=S)C#N`, for the setting “dose: 75.0 mg/kg/injection, schedule: Q04DX003 (ip), vehicle: saline + Tween-80 + alcohol”, the T/C was 51 % of control.
